Target: USP19 (Homo sapiens (Human), UniProt O94966)
Test: USP19 fluorescence polarization (FP) homogeneous assay with Ubiquitin-Lys-TAMRA substrate
Format: biochemical
Conditions: full-length USP19 2.5 nM, Ub substrate 500 nM, 30 min pre-incubation at rt; average of at least two duplicate experiments
Method: Unless otherwise stated, all other reagents were purchased from Sigma. Enzymatic reactions were conducted in black flat bottom polystyrene 384-well plates (Nunc) and 30 μL total volume. […] Inhibitors were stored as 10 mM DMSO stocks in an inert environment (low humidity, dark, low oxygen, room temperature) using the Storage Pod System and serial dilutions were prepared in buffer just prior to the assay (from 200 μM to 2 pM, 8-18 data point curve). Following incubation at rt for 30 min, the enzymatic reactions were initiated by dispensing the Ub substrate (500 nM, 10 μL). FP was measured every 15 min over a period of 90 min (within the linear range of the assay) using a Synergy 4 plate reader (BioTek) exciting at 530 nm and measuring the amount of parallel and perpendicular light at 575 nm. The FP signal was subsequently normalized to the no compound control.

USP19, sequence (O94966 whole entry): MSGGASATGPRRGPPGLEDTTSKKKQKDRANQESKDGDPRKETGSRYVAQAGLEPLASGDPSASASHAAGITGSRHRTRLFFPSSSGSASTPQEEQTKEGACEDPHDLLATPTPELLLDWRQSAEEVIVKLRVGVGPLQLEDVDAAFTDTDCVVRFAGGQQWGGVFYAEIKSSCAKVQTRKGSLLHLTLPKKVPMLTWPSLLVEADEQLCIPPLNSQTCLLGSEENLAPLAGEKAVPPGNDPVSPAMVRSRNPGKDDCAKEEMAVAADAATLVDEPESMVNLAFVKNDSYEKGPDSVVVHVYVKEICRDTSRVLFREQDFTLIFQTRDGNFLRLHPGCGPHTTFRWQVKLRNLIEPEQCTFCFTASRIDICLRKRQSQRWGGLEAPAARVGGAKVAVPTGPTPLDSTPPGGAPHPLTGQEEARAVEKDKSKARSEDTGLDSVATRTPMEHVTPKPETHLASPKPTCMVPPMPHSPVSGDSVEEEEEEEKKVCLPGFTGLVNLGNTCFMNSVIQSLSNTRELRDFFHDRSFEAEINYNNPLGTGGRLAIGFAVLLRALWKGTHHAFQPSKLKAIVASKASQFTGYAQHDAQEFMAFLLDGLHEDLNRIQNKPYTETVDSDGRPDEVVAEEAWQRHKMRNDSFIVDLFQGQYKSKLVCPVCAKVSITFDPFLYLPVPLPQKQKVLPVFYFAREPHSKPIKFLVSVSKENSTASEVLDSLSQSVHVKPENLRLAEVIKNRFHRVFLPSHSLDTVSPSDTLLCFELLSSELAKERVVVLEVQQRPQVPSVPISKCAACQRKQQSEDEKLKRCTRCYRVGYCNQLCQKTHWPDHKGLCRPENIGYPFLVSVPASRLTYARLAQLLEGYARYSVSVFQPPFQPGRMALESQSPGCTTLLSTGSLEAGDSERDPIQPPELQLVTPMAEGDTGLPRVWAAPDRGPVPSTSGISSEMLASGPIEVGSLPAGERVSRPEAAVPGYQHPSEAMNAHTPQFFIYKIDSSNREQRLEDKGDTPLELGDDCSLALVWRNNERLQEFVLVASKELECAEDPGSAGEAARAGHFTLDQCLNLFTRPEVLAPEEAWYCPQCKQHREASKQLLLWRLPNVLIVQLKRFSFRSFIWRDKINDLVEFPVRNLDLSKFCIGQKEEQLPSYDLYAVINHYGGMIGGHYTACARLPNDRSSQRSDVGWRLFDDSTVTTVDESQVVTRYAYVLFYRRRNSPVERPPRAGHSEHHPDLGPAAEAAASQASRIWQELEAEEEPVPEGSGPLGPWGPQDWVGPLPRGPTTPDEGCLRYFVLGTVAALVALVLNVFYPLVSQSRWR

| Compound | IC50 [µM] |
| --- | --- |
| C[C@H](CC1CCCCC1)C(=O)N1CC[C@](O)(Cn2cc(N=S(C)(C)=O)c(-c3ccccc3F)cc2=O)C(C)(C)C1 [Example 65, 1-(((R)-1-((R)-3-Cyclohexyl-2-methylpropanoyl)-4-hydroxy-3,3-dimethylpiperidin-4-yl)methyl)-5-((dimethyl(oxo)-λ^6-sulfaneylidene)amino)-4-(2-fluorophenyl)pyridin-2(1H)-one] | 50 to 250 |
| CC(CC(=O)N1CCC(O)(CN2CC(Cc3ccccc3)CC2=O)C(C)(C)C1)c1ccccc1 (centres unmarked) [Example 44, 4-Benzyl-1-((4-hydroxy-3,3-dimethyl-1-(3-phenylbutanoyl)piperidin-4-yl)methyl)pyrrolidin-2-one] | 50 to 250 |
| C[C@H](CC1CCCCC1)C(=O)N1CC[C@@](O)(Cn2cc(N=S(C)(C)=O)c(-c3ccccc3F)cc2=O)C(C)(C)C1 [Example 66, 1-(((S)-1-((R)-3-Cyclohexyl-2-methylpropanoyl)-4-hydroxy-3,3-dimethylpiperidin-4-yl)methyl)-5-((dimethyl(oxo)-λ^6-sulfaneylidene)amino)-4-(2-fluorophenyl)pyridin-2(1H)-one] | 0.5 to 5 |
| C[C@H](CC(F)(F)F)C(=O)N1CCC(O)(Cn2ccc3ccc(F)cc3c2=O)C2(CCCC2)C1 (stereo partly drawn) [Example 135, 7-Fluoro-2-((10-hydroxy-7-((R)-4,4,4-trifluoro-2-methylbutanoyl)-7-azaspiro[4.5]decan-10-yl)methyl)isoquinolin-1(2H)-one] | 5 to 50 |
| O=C1COCCN1CC1(O)CCN(C(=O)N2CCOC[C@H]2c2ccccc2)CC12CCCC2 (stereo partly drawn) [Example 117, 4-((10-Hydroxy-7-((R)-3-phenylmorpholine-4-carbonyl)-7-azaspiro[4.5]decan-10-yl)methyl)morpholin-3-one] | 0.5 to 5 |
